Test results published in patent US9617244B2, “Antibacterial quinoline derivatives” (JANSSEN PHARMACEUTICA NV, priority 2012, dated 2017).
In brackets after ≈: the same amount, converted by molar mass.

What was measured:
[1] = tested on: Staphylococcus aureus (ATCC29213); experiment: In-vitro anti-bacterial activity, microtitre plate assay, IC90 determination (non-mycobacterial strains); assay type: cell-based; details: 90% inhibitory concentration for bacterial growth, resazurin fluorescence; for IC90 STA B29213: 24 hours; for IC90: Staphylococcus aureus, ATCC29213, 24 h, read-out: IC90 STA B29213
Summary of the method: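 Growth inhibition measured fluorometrically with resazurin (530/590 nm) after overnight 37 °C incubation under normal atmosphere. Bacteria added at roughly 100 TCID50 per well in Mueller-Hinton broth to five-fold compound dilution series; IC90 reported in μg/ml.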

[2] = tested on: Mycobacterium smegmatis (ATCC607); experiment: In-vitro anti-bacterial activity against strain M. Smegmatis ATCC607; assay type: cell-based; details: 90% inhibitory concentration for bacterial growth, Alamar Blue fluorescence; for IC90 MSM 607: 48 hours; for IC90: Mycolicibacterium smegmatis, ATCC607, 48 h, read-out: IC90 MSM 607
Summary of the method: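 IC90 (μg/ml) derived from Alamar Blue fluorescence (530/590 nm) after 48 h growth at 37 °C under 5% CO2. About 250 CFU per well in Mueller-Hinton broth faced five-fold serial compound dilutions in BSA-containing wells.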

Row | Structure (SMILES) | melting point | IC90 STA B29213 [1] | IC90 MSM 607 [2] | IC90 [1] | IC90 [2]
1 | COc1nc2ccc(SC)cc2cc1C(c1ccc(Cl)cc1)C1(O)CCNC(c2ccc(F)cc2C)C1 (stereo not drawn) [Compound 273] | 204 °C | 3.39 µg/mL (≈ 6.31 µM) | 1.70 µg/mL (≈ 3.17 µM) |  | 
2 | COc1nc2ccc(SC)cc2cc1C(c1ccc(Cl)cc1)C1(O)CCNC(c2ccc(F)cc2C)C1 (stereo not drawn) [Compound 275] | 140 °C | 0.85 µg/mL (≈ 1.58 µM) | 1.35 µg/mL (≈ 2.51 µM) |  | 
3 | COc1nc2ccc(SC)cc2cc1C(c1ccc(Cl)cc1)C1(O)CCNCC1Cc1cccc(F)c1 (stereo not drawn) [Compound 283] | 184 °C | 3.39 µg/mL (≈ 6.31 µM) | 3.39 µg/mL (≈ 6.31 µM) |  | 
4 | COc1nc2ccc(SC)cc2cc1C(c1ccc(Cl)cc1)C1(O)CCNC(CC2CCCCC2)C1 (stereo not drawn) [Compound 287] | 185 °C |  |  | 3.31 µg/mL (≈ 6.3 µM) | 2.63 µg/mL (≈ 5.01 µM)
5 | COc1nc2ccc(S(C)(=O)=O)cc2cc1C(c1ccc(Cl)cc1)C1(O)CCNCC1Cc1cccc(F)c1 (stereo not drawn) [Compound 291] | 150 °C |  | 7.16 µg/mL (≈ 12.6 µM) | 7.16 µg/mL (≈ 12.6 µM) | 
6 | COc1nc2ccc(SC)cc2cc1C(c1ccc(Cl)cc1)C1(O)CCNC(Cc2ccc(F)cc2)C1 (stereo not drawn) [Compound 299] | 110 °C | 1.70 µg/mL (≈ 3.17 µM) | 1.35 µg/mL (≈ 2.51 µM) |  | 
7 | COc1nc2ccc(SC)cc2cc1C(c1ccc(Cl)cc1)C1(O)CCNC(Cc2ccc(F)cc2)C1 (stereo not drawn) [Compound 300] | 90 °C | 1.07 µg/mL (≈ 1.99 µM) | 1.70 µg/mL (≈ 3.17 µM) |  | 
8 | COc1nc2ccc(SC)cc2cc1C(c1ccc(Cl)cc1)C1(O)CCNC(Cc2ccc(F)cc2)C1 (stereo not drawn) [Compound 301] | 170 °C | 6.76 µg/mL (≈ 12.6 µM) | 6.76 µg/mL (≈ 12.6 µM) |  | 
9 | COc1nc2ccc(SC)cc2cc1C(c1ccc(Cl)cc1)C1(O)CCNC(Cc2ccc(F)cc2)C1 (stereo not drawn) [Compound 302] | 120 °C | 2.14 µg/mL (≈ 3.98 µM) | 1.35 µg/mL (≈ 2.51 µM) |  | 
10 | COc1nc2ccc(SC)cc2cc1C(c1cccc(Cl)c1)C1(O)CCNC(Cc2ccc(F)cc2F)C1 (stereo not drawn) [Compound 318] | 133 °C | 1.76 µg/mL (≈ 3.17 µM) | 1.76 µg/mL (≈ 3.17 µM) |  | 
11 | COc1nc2ccc(Br)cc2cc1C(c1ccc(Cl)cc1)C1(O)CCNC(Cc2ccc(F)cc2F)C1 (stereo not drawn) [Compound 320] | 159 °C | 3.71 µg/mL (≈ 6.31 µM) | 2.95 µg/mL (≈ 5.02 µM) |  | 
12 | COc1nc2ccc(Br)cc2cc1C(c1ccc(Cl)cc1)C1(O)CCNC(Cc2ccc(F)cc2)C1 (stereo not drawn) [Compound 337] | 186 °C | 1.80 µg/mL (≈ 3.16 µM) | 0.90 µg/mL (≈ 1.58 µM) |  | 
13 | COc1nc2ccc(Br)cc2cc1C(c1ccc(Cl)cc1)C1(O)CCNC(Cc2ccc(F)cc2)C1 (stereo not drawn) [Compound 338] | 198 °C | 1.80 µg/mL (≈ 3.16 µM) | 1.43 µg/mL (≈ 2.51 µM) |  | 
14 | COc1nc2ccc(Br)cc2cc1C(c1ccc(Cl)cc1)C1(O)CCNC(Cc2ccc(F)cc2)C1 (stereo not drawn) [Compound 339] | 176 °C | 3.60 µg/mL (≈ 6.32 µM) | 1.80 µg/mL (≈ 3.16 µM) |  | 
15 | COc1nc2ccc(Br)cc2cc1C(c1ccc(Cl)cc1)C1(O)CCNC(Cc2ccc(F)cc2)C1 (stereo not drawn) [Compound 340] | 132 °C | 2.86 µg/mL (≈ 5.02 µM) | 1.43 µg/mL (≈ 2.51 µM) |  | 
16 | COc1nc2ccc(Cl)cc2cc1C(c1ccc(SC)cc1)C1(O)CCNC(c2ccc(F)cc2C)C1 (stereo not drawn) [Compound 351] | 128 to 130 °C | 1.70 µg/mL (≈ 3.17 µM) | 1.35 µg/mL (≈ 2.51 µM) |  | 
17 | COc1nc2ccc(Cl)cc2cc1C(c1ccc(SC)cc1)C1(O)CCNC(c2ccc(F)cc2C)C1 (stereo not drawn) [Compound 352] | 123 to 125 °C | 1.70 µg/mL (≈ 3.17 µM) | 0.85 µg/mL (≈ 1.58 µM) |  | 
18 | COc1nc2ccc(Br)cc2cc1C(c1ccc(Cl)cc1)C1(O)CCNC(Cc2ccc(F)cc2)C1 (stereo not drawn) [Compound 355] | 190 °C | 3.60 µg/mL (≈ 6.32 µM) | 1.43 µg/mL (≈ 2.51 µM) |  | 

Row | Structure (SMILES) | melting point | IC90 STA B29213 [1] | IC90 MSM 607 [2] | IC90 [1] | IC90 [2]
19 | COc1nc2ccc(Br)cc2cc1C(c1ccc(Cl)cc1)C1(O)CCNC(Cc2ccc(F)cc2)C1 (stereo not drawn) [Compound 356] | 98 °C | 1.80 µg/mL (≈ 3.16 µM) | 1.80 µg/mL (≈ 3.16 µM) |  | 
20 | COc1nc2ccc(Br)cc2cc1C(c1ccc(Cl)cc1)C1(O)CCNC(Cc2ccc(F)cc2)C1 (stereo not drawn) [Compound 357] | 104 °C | 5.70 µg/mL (≈ 10 µM) | 3.60 µg/mL (≈ 6.32 µM) |  | 
21 | COc1nc2ccc(Br)cc2cc1C(c1ccc(Cl)cc1)C1(O)CCNC(Cc2ccc(F)cc2)C1 (stereo not drawn) [Compound 358] | 138 °C | 3.60 µg/mL (≈ 6.32 µM) | 1.43 µg/mL (≈ 2.51 µM) |  | 
22 | COc1nc2ccc(Cl)cc2cc1C(c1ccc(S(C)(=O)=O)cc1)C1(O)CCNC(c2ccc(F)cc2C)C1 (stereo not drawn) [Compound 366] | 146 °C | 7.16 µg/mL (≈ 12.6 µM) | 3.59 µg/mL (≈ 6.31 µM) |  | 
23 | COc1nc2ccc(Cl)cc2cc1C(c1ccc(S(C)(=O)=O)cc1)C1(O)CCNC(c2ccc(F)cc2C)C1 (stereo not drawn) [Compound 367] | 175 °C | 7.16 µg/mL (≈ 12.6 µM) | 5.69 µg/mL (≈ 10 µM) |  | 
24 | C=CC1CC(O)(C(c2ccc(Cl)cc2)c2cc3cc(Br)ccc3nc2OC)CCN1 (stereo not drawn) [Compound 371] | 158 °C |  | 2.44 µg/mL (≈ 5 µM) | 3.08 µg/mL (≈ 6.31 µM) | 
25 | C=CC1CC(O)(C(c2ccc(Cl)cc2)c2cc3cc(Br)ccc3nc2OC)CCN1 (stereo not drawn) [Compound 372] | 194 °C | 6.14 µg/mL (≈ 12.6 µM) | 3.08 µg/mL (≈ 6.31 µM) |  | 
26 | C=CC1CC(O)(C(c2ccc(Cl)cc2)c2cc3cc(Br)ccc3nc2OC)CCN1 (stereo not drawn) [Compound 373] | 193 °C | 3.08 µg/mL (≈ 6.31 µM) | 3.08 µg/mL (≈ 6.31 µM) |  | 
27 | C=CC1CC(O)(C(c2ccc(Cl)cc2)c2cc3cc(Br)ccc3nc2OC)CCN1 (stereo not drawn) [Compound 374] | 162 °C | 3.08 µg/mL (≈ 6.31 µM) | 1.23 µg/mL (≈ 2.52 µM) |  | 
28 | COc1nc2ccc(S(=O)(=O)C(C)C)cc2cc1C(c1ccc(Cl)cc1)C1(O)CCNC(Cc2ccccc2)C1 (stereo not drawn) [Compound 386] | 125 °C | 3.65 µg/mL (≈ 6.3 µM) | 2.90 µg/mL (≈ 5.01 µM) |  | 
29 | COc1nc2ccc(S(=O)(=O)C(C)C)cc2cc1C(c1ccc(Cl)cc1)C1(O)CCNC(Cc2ccccc2)C1 (stereo not drawn) [Compound 387] | 204 °C | 14.55 µg/mL (≈ 25.1 µM) | 7.29 µg/mL (≈ 12.6 µM) |  | 
30 | COc1nc2ccc(S(C)(=O)=O)cc2cc1C(c1ccc(Cl)cc1)C1(O)CCNC(Cc2ccc(F)cc2)C1 (stereo not drawn) [Compound 388] | 103 °C | 1.80 µg/mL (≈ 3.16 µM) | 3.59 µg/mL (≈ 6.31 µM) |  | 
31 | COc1nc2ccc(S(C)(=O)=O)cc2cc1C(c1ccc(Cl)cc1)C1(O)CCNC(Cc2ccc(F)cc2)C1 (stereo not drawn) [Compound 389] | 128 °C | 7.16 µg/mL (≈ 12.6 µM) | 7.16 µg/mL (≈ 12.6 µM) |  | 
32 | COc1nc2ccc(S(C)(=O)=O)cc2cc1C(c1ccc(Cl)cc1)C1(O)CCNC(Cc2ccc(F)cc2)C1 (stereo not drawn) [Compound 390] | 170 °C | 14.30 µg/mL (≈ 25.1 µM) | 11.36 µg/mL (≈ 20 µM) |  | 
33 | COc1nc2ccc(S(C)(=O)=O)cc2cc1C(c1ccc(Cl)cc1)C1(O)CCNC(Cc2ccc(F)cc2)C1 (stereo not drawn) [Compound 391] | 120 °C | 3.59 µg/mL (≈ 6.31 µM) | 1.80 µg/mL (≈ 3.16 µM) |  | 
34 | C=CCC1CNCCC1(O)C(c1ccc(Cl)cc1)c1cc2cc(Br)ccc2nc1OC (stereo not drawn) [Compound 392] | 162 to 164 °C |  |  | 6.32 µg/mL (≈ 12.6 µM) | 3.17 µg/mL (≈ 6.32 µM)
35 | C=CCC1CNCCC1(O)C(c1ccc(Cl)cc1)c1cc2cc(Br)ccc2nc1OC (stereo not drawn) [Compound 393] | 159 to 161 °C | 10.01 µg/mL (≈ 19.9 µM) | 6.32 µg/mL (≈ 12.6 µM) |  | 
36 | C=CCC1CNCCC1(O)C(c1cccc(Cl)c1)c1cc2cc(Cl)ccc2nc1OC (stereo not drawn) [Compound 395] | 150 to 152 °C | 5.76 µg/mL (≈ 12.6 µM) | 2.89 µg/mL (≈ 6.32 µM) |  | 
